Test results published in article PMC7181660, “A novel specific PERK activator reduces toxicity and extends survival in Huntington's disease models” (Scientific Reports, 2020).

Columns and labels:
Assay in all cases: biochemical
Type in all cases: biochemical
panel of 391 kinases [1] = target: panel of 391 kinases (Homo sapiens, UniProt O15146); conditions: MUSK, MK-28 1 µM, ATP 1 µM
panel of 391 kinases [2] = target: panel of 391 kinases (Homo sapiens, UniProt O95382); conditions: MEKK6, MK-28 1 µM, ATP 1 µM
panel of 391 kinases [3] = target: panel of 391 kinases (Homo sapiens, UniProt P04049); conditions: RAF1, MK-28 1 µM, ATP 1 µM
panel of 391 kinases [4] = target: panel of 391 kinases (Homo sapiens, UniProt P07332); conditions: FES/FPS, MK-28 1 µM, ATP 1 µM
panel of 391 kinases [5] = target: panel of 391 kinases (Homo sapiens, UniProt P12931); conditions: c-Src, MK-28 1 µM, ATP 1 µM
panel of 391 kinases [6] = target: panel of 391 kinases (Homo sapiens, UniProt P15056); conditions: BRAF, MK-28 1 µM, ATP 1 µM
panel of 391 kinases [7] = target: panel of 391 kinases (Homo sapiens, UniProt P23458); conditions: JAK1, MK-28 1 µM, ATP 1 µM
panel of 391 kinases [8] = target: panel of 391 kinases (Homo sapiens, UniProt P27448); conditions: MARK3, MK-28 1 µM, ATP 1 µM
panel of 391 kinases [9] = target: panel of 391 kinases (Homo sapiens, UniProt P30530); conditions: AXL, MK-28 1 µM, ATP 1 µM
panel of 391 kinases [10] = target: panel of 391 kinases (Homo sapiens, UniProt P31751); conditions: AKT2, MK-28 1 µM, ATP 1 µM
panel of 391 kinases [11] = target: panel of 391 kinases (Homo sapiens, UniProt P35626); conditions: GRK3, MK-28 1 µM, ATP 1 µM
panel of 391 kinases [12] = target: panel of 391 kinases (Homo sapiens, UniProt P42680); conditions: TEC, MK-28 1 µM, ATP 1 µM
panel of 391 kinases [13] = target: panel of 391 kinases (Homo sapiens, UniProt P49760); conditions: CLK2, MK-28 1 µM, ATP 1 µM
panel of 391 kinases [14] = target: panel of 391 kinases (Homo sapiens, UniProt P52333); conditions: JAK3, MK-28 1 µM, ATP 1 µM
panel of 391 kinases [15] = target: panel of 391 kinases (Homo sapiens, UniProt Q13555); conditions: CAMK2g, MK-28 1 µM, ATP 1 µM
panel of 391 kinases [16] = target: panel of 391 kinases (Homo sapiens, UniProt Q14680); conditions: MELK, MK-28 1 µM, ATP 1 µM
panel of 391 kinases [17] = target: panel of 391 kinases (Homo sapiens, UniProt Q16288); conditions: TRKC, MK-28 1 µM, ATP 1 µM
panel of 391 kinases [18] = target: panel of 391 kinases (Homo sapiens, UniProt Q16539); conditions: P38a/MAPK14, MK-28 1 µM, ATP 1 µM
panel of 391 kinases [19] = target: panel of 391 kinases (Homo sapiens, UniProt Q7KZI7); conditions: MARK2/PAR-1Ba, MK-28 1 µM, ATP 1 µM
panel of 391 kinases [20] = target: panel of 391 kinases (Homo sapiens, UniProt Q92918); conditions: HPK1/MAP4K1, MK-28 1 µM, ATP 1 µM
panel of 391 kinases [21] = target: panel of 391 kinases (Homo sapiens, UniProt Q96PF2); conditions: TSSK2, MK-28 1 µM, ATP 1 µM
panel of 391 kinases [22] = target: panel of 391 kinases (Homo sapiens, UniProt Q96SB4); conditions: SRPK1, MK-28 1 µM, ATP 1 µM
panel of 391 kinases [23] = target: panel of 391 kinases (Homo sapiens, UniProt Q99759); conditions: MEKK3, MK-28 1 µM, ATP 1 µM
panel of 391 kinases [24] = target: panel of 391 kinases (Homo sapiens, UniProt Q9BZL6); conditions: PKD2/PRKD2, MK-28 1 µM, ATP 1 µM
panel of 391 kinases [25] = target: panel of 391 kinases (Homo sapiens, UniProt Q9P2K8); conditions: kinase EIF2AK4, compound at 1 µM, single dose in duplicates, 1 µM ATP
panel of 391 kinases [26] = target: panel of 391 kinases (Homo sapiens, UniProt Q9UKE5); conditions: TNIK, MK-28 1 µM, ATP 1 µM
panel of 391 kinases [27] = target: panel of 391 kinases (Homo sapiens, UniProt Q9Y463); conditions: DYRK1B, MK-28 1 µM, ATP 1 µM
[28] = read-out: % Enzyme Activity (relative to DMSO controls)

## CN(/N=C\c1ccc(O)c(O)c1)c1nc(-c2ccccc2)cc(-c2ccccc2)n1 [MK-28]
Panel of 391 kinases [1]
  % Enzyme Activity (relative to DMSO controls): 95.79%
Panel of 391 kinases [1]; [28]
  remaining activity at 1 µM: 99.1%
Panel of 391 kinases [2]
  % Enzyme Activity (relative to DMSO controls): 101.22%
Panel of 391 kinases [2]; [28]
  remaining activity at 1 µM: 108%
Panel of 391 kinases [3]
  % Enzyme Activity (relative to DMSO controls): 93.95%
Panel of 391 kinases [3]; [28]
  remaining activity at 1 µM: 94.3%
Panel of 391 kinases [4]
  % Enzyme Activity (relative to DMSO controls): 91.44%
Panel of 391 kinases [4]; [28]
  remaining activity at 1 µM: 95.1%
Panel of 391 kinases [5]
  % Enzyme Activity (relative to DMSO controls): 96.32%
Panel of 391 kinases [5]; [28]
  remaining activity at 1 µM: 97.7%
Panel of 391 kinases [6]
  % Enzyme Activity (relative to DMSO controls): 99.64%
Panel of 391 kinases [6]; [28]
  remaining activity at 1 µM: 101%
Panel of 391 kinases [7]
  % Enzyme Activity (relative to DMSO controls): 100.53%
Panel of 391 kinases [7]; [28]
  remaining activity at 1 µM: 101%
Panel of 391 kinases [8]
  % Enzyme Activity (relative to DMSO controls): 98.84%
Panel of 391 kinases [8]; [28]
  remaining activity at 1 µM: 99%
Panel of 391 kinases [9]
  % Enzyme Activity (relative to DMSO controls): 98.72%
Panel of 391 kinases [9]; [28]
  remaining activity at 1 µM: 99.5%
Panel of 391 kinases [10]
  % Enzyme Activity (relative to DMSO controls): 95.73%
Panel of 391 kinases [10]; [28]
  remaining activity at 1 µM: 98.1%
Panel of 391 kinases [11]
  % Enzyme Activity (relative to DMSO controls): 99.99%
Panel of 391 kinases [11]; [28]
  remaining activity at 1 µM: 102%
Panel of 391 kinases [12]
  % Enzyme Activity (relative to DMSO controls): 100.49%
Panel of 391 kinases [12]; [28]
  remaining activity at 1 µM: 101%
Panel of 391 kinases [13]
  % Enzyme Activity (relative to DMSO controls): 103.52%
Panel of 391 kinases [13]; [28]
  remaining activity at 1 µM: 108%
Panel of 391 kinases [14]
  % Enzyme Activity (relative to DMSO controls): 104.48%
Panel of 391 kinases [14]; [28]
  remaining activity at 1 µM: 106%
Panel of 391 kinases [15]
  % Enzyme Activity (relative to DMSO controls): 86.57%
Panel of 391 kinases [15]; [28]
  remaining activity at 1 µM: 87.8%
Panel of 391 kinases [16]
  % Enzyme Activity (relative to DMSO controls): 84.50%
Panel of 391 kinases [16]; [28]
  remaining activity at 1 µM: 85.5%
Panel of 391 kinases [17]
  % Enzyme Activity (relative to DMSO controls): 91.11%
Panel of 391 kinases [17]; [28]
  remaining activity at 1 µM: 92.9%
Panel of 391 kinases [18]
  % Enzyme Activity (relative to DMSO controls): 98.53%
Panel of 391 kinases [18]; [28]
  remaining activity at 1 µM: 100%
Panel of 391 kinases [19]
  % Enzyme Activity (relative to DMSO controls): 98.73%
Panel of 391 kinases [19]; [28]
  remaining activity at 1 µM: 106%
Panel of 391 kinases [20]
  % Enzyme Activity (relative to DMSO controls): 114.23%
Panel of 391 kinases [20]; [28]
  remaining activity at 1 µM: 117%
Panel of 391 kinases [21]
  % Enzyme Activity (relative to DMSO controls): 76.99%
Panel of 391 kinases [21]; [28]
  remaining activity at 1 µM: 77.3%
Panel of 391 kinases [22]
  % Enzyme Activity (relative to DMSO controls): 103.25%
Panel of 391 kinases [22]; [28]
  remaining activity at 1 µM: 104%
Panel of 391 kinases [23]
  % Enzyme Activity (relative to DMSO controls): 87.80%
Panel of 391 kinases [23]; [28]
  remaining activity at 1 µM: 93.8%
Panel of 391 kinases [24]
  % Enzyme Activity (relative to DMSO controls): 86.38%
Panel of 391 kinases [24]; [28]
  remaining activity at 1 µM: 87%
Panel of 391 kinases [25]
  % Enzyme Activity (relative to DMSO controls): 87.73%
Panel of 391 kinases [25]; [28]
  remaining activity at 1 µM: 88.1%
Panel of 391 kinases [26]
  % Enzyme Activity (relative to DMSO controls): 100.50%
Panel of 391 kinases [26]; [28]
  remaining activity at 1 µM: 102%
Panel of 391 kinases [27]
  % Enzyme Activity (relative to DMSO controls): 88.09%
Panel of 391 kinases [27]; [28]
  remaining activity at 1 µM: 89.9%
